Reference: ChEMBL document CHEMBL1629647, “Preclinical evaluation of GS-9160, a novel inhibitor of human immunodeficiency virus type 1 integrase” (Antimicrob Agents Chemother, 2009)

What was measured:
[1] = test system: Human immunodeficiency virus 1; assay: Antiviral activity against HIV1 3B infected in human MT-2 cells by two fold dilution method in presence of 10% FBS; assay type: functional, organism-based; conditions: Human immunodeficiency virus 1, 3B, MT2
[2] = Cytotoxicity against human SupT1 cells infected with HIV1 3B; assay type: cell-based, SUP-T1; conditions: SupT1 cells infected with HIV-1 3B
[3] = Cytotoxicity against human MT4 cells infected with HIV1 3B by three fold dilution method in presence of 10% FBS; assay type: cell-based; conditions: MT4 cells infected with HIV-1 3B
[4] = test system: Human immunodeficiency virus 1; assay: Antiviral activity against 0.001 MOI HIV1 BAL infected in human T lymphocyte cells by p24 antigen ELISA in presence of 10% FBS, HSA and alpha1-AGP; assay type: functional, organism-based; conditions: Human immunodeficiency virus 1, BAL
[5] = test system: Human immunodeficiency virus 1; assay: Antiviral activity against HIV1 3B infected in human MT-2 cells by two fold dilution method in presence of 10% FBS, HSA and alpha1-AGP; assay type: functional, organism-based; conditions: Human immunodeficiency virus 1, 3B, MT2
[6] = test system: Human immunodeficiency virus 1; assay: Antiviral activity against 0.02 MOI HIV1 3B infected in human MT-2 cells by two fold dilution method in presence of 100% human serum; assay type: functional, organism-based; conditions: Human immunodeficiency virus 1, 3B, MT2
[7] = test system: Human immunodeficiency virus 1; assay: Antiviral activity against 0.001 MOI HIV1 BAL infected in human T lymphocyte cells by p24 antigen ELISA in presence of 10% FBS; assay type: functional, organism-based; conditions: Human immunodeficiency virus 1, BAL
[8] = test system: Human immunodeficiency virus 1; assay: Antiviral activity against HIV1 infected in SupT1 cells assessed as accumulation of integrated junction products after 48 hrs by Alu-PCR assay; assay type: functional, organism-based; conditions: Human immunodeficiency virus 1, SUP-T1, 48 h
[9] = Cytotoxicity against human T lymphocyte cells uninfected by XTT method in presence of 10% FBS
[10] = test system: Human immunodeficiency virus 1; assay: Antiviral activity against 0.04 MOI HIV1 3B infected in human MT-2 cells by […] dilution method in presence of 100% human serum; conditions: Human immunodeficiency virus 1, 3B, MT2
[11] = test system: Human immunodeficiency virus 1; assay: Antiviral activity against HIV1 3B infected in human MT-4 cells by two fold dilution method in presence of 10% FBS; assay type: functional, organism-based; conditions: Human immunodeficiency virus 1, 3B, MT4
[12] = test system: Human immunodeficiency virus 1; assay: Antiviral activity against 0.01 MOI HIV1 3B infected in human MT-2 cells by two fold dilution method in presence of 100% human serum; assay type: functional, organism-based; conditions: Human immunodeficiency virus 1, 3B, MT2
[13] = test system: Human immunodeficiency virus 1; assay: Antiviral activity against HIV1 infected in SupT1 cells assessed as accumulation of late RT products after 12 hrs; assay type: functional, organism-based; conditions: Human immunodeficiency virus 1, SUP-T1, 12 h
[14] = Cytotoxicity against human uninfected MT2 cells by three fold dilution method in presence of 10% FBS
[15] = test system: Human immunodeficiency virus 1; assay: Antiviral activity against HIV1 3B infected in SupT1 cells assessed as fold increase in viral 2-LTR circles accumulation after […] postinfection by TaqMan real-time PCR; assay type: functional, SUP-T1
[16] = test system: Human immunodeficiency virus 1; assay: Selectivity ratio of EC50 for antiviral activity against HIV1 harboring G140S and Q148H mutation in catalytic core domain of integrase to EC50 for antiviral activity against wild-type HIV1 3B; assay type: functional
[17] = test system: Human immunodeficiency virus 1; assay: Selectivity ratio of EC50 for antiviral activity against HIV1 harboring Q148K mutation in catalytic core domain of integrase to EC50 for antiviral activity against wild-type HIV1 3B; assay type: functional
[18] = test system: Human immunodeficiency virus 1; assay: Selectivity ratio of EC50 for antiviral activity against NRTI-resistant HIV1 harboring RTM184V mutant gene to EC50 for antiviral activity against wild-type HIV1 3B; assay type: functional
[19] = test system: Human immunodeficiency virus 1; assay: Selectivity ratio of EC50 for antiviral activity against NRTI-resistant HIV1 harboring RT-6TAMs mutant gene to EC50 for antiviral activity against wild-type HIV1 3B; assay type: functional
[20] = test system: Human immunodeficiency virus 1; assay: Selectivity ratio of EC50 for antiviral activity against HIV1 harboring G140S mutation in catalytic core domain of integrase to EC50 for antiviral activity against wild-type HIV1 3B; assay type: functional
[21] = test system: Human immunodeficiency virus 1; assay: Selectivity ratio of EC50 for antiviral activity against HIV1 harboring L74M and E92V mutation in catalytic core domain of integrase to EC50 for antiviral activity against wild-type HIV1 3B; assay type: functional
[22] = test system: Human immunodeficiency virus 1; assay: Selectivity ratio of EC50 for antiviral activity against PI-resistant HIV1 harboring […], L90M mutant gene to EC50 for antiviral activity against wild-type HIV1 3B; assay type: functional
[23] = test system: Human immunodeficiency virus 1; assay: Selectivity ratio of EC50 for antiviral activity against HIV1 harboring V151A mutation in catalytic core domain of integrase to EC50 for antiviral activity against wild-type HIV1 3B; assay type: functional
[24] = test system: Human immunodeficiency virus 1; assay: Selectivity ratio of EC50 for antiviral activity against NNRTI-resistant HIV1 harboring RTY181C mutant gene to EC50 for antiviral activity against wild-type HIV1 3B; assay type: functional
[25] = test system: Human immunodeficiency virus 1; assay: Selectivity ratio of EC50 for antiviral activity against HIV1 harboring E138K mutation in catalytic core domain of integrase to EC50 for antiviral activity against wild-type HIV1 3B; assay type: functional
[26] = test system: Human immunodeficiency virus 1; assay: Selectivity ratio of EC50 for antiviral activity against HIV1 harboring E92V, G140S and V151A mutation in catalytic core domain of integrase to EC50 for antiviral activity against wild-type HIV1 3B; assay type: functional
[27] = test system: Human immunodeficiency virus 1; assay: Selectivity ratio of EC50 for antiviral activity against PI-resistant HIV1 harboring […], V82A and L90M mutant gene to EC50 for antiviral activity against wild-type HIV1 3B; assay type: functional
[28] = test system: Human immunodeficiency virus 1; assay: Selectivity ratio of EC50 for antiviral activity against HIV1 harboring L74M mutation in catalytic core domain of integrase to EC50 for antiviral activity against wild-type HIV1 3B; assay type: functional
[29] = test system: Human immunodeficiency virus 1; assay: Selectivity ratio of EC50 for antiviral activity against HIV1 harboring E138K and Q148K mutation in catalytic core domain of integrase to EC50 for antiviral activity against wild-type HIV1 3B; assay type: functional
[30] = test system: Human immunodeficiency virus 1; assay: Selectivity ratio of EC50 for antiviral activity against HIV1 harboring N155H mutation in catalytic core domain of integrase to EC50 for antiviral activity against wild-type HIV1 3B; assay type: functional
[31] = test system: Human immunodeficiency virus 1; assay: Selectivity ratio of EC50 for antiviral activity against HIV1 harboring E92V and V151A mutation in catalytic core domain of integrase to EC50 for antiviral activity against wild-type HIV1 3B; assay type: functional
[32] = test system: Human immunodeficiency virus 1; assay: Selectivity ratio of EC50 for antiviral activity against HIV1 harboring T66I mutation in catalytic core domain of integrase to EC50 for antiviral activity against wild-type HIV1 3B; assay type: functional
[33] = test system: Human immunodeficiency virus 1; assay: Selectivity ratio of EC50 for antiviral activity against HIV1 harboring E92V mutation in catalytic core domain of integrase to EC50 for antiviral activity against wild-type HIV1 3B; assay type: functional
[34] = test system: Human immunodeficiency virus 1; assay: Selectivity ratio of EC50 for antiviral activity against NNRTI-resistant HIV1 harboring RTK103N mutant gene to EC50 for antiviral activity against wild-type HIV1 3B; assay type: functional
[35] = test system: Human immunodeficiency virus 1; assay: Selectivity ratio of EC50 for antiviral activity against HIV1 harboring E92Q mutation in catalytic core domain of integrase to EC50 for antiviral activity against wild-type HIV1 3B; assay type: functional
[36] = test system: Human immunodeficiency virus 1; assay: Selectivity ratio of EC50 for antiviral activity against HIV1 harboring N155S mutation in catalytic core domain of integrase to EC50 for antiviral activity against wild-type HIV1 3B; assay type: functional
[37] = test system: Human immunodeficiency virus 1; assay: Selectivity ratio of EC50 for antiviral activity against NRTI-resistant HIV1 harboring RTK65R mutant gene to EC50 for antiviral activity against wild-type HIV1 3B; assay type: functional
[38] = test system: Human immunodeficiency virus 1; assay: Selectivity ratio of EC50 for antiviral activity against EFV-resistant HIV1 selected after 3 passages to EC50 for antiviral activity against wild-type HIV1 3B; assay type: functional
[39] = test system: Human immunodeficiency virus 1; assay: Selectivity ratio of EC50 for antiviral activity against 3TC-resistant HIV1 selected after 4 passages to EC50 for antiviral activity against wild-type HIV1 3B; assay type: functional
[40] = test system: Human immunodeficiency virus 1; assay: Selectivity ratio of EC50 for antiviral activity against APV-resistant HIV1 selected after 4 passages to EC50 for antiviral activity against wild-type HIV1 3B; assay type: functional
[41] = test system: Human immunodeficiency virus 1; assay: Selectivity ratio of EC50 for antiviral activity against 3TC-resistant HIV1 selected after 8 passages to EC50 for antiviral activity against wild-type HIV1 3B; assay type: functional
[42] = test system: Human immunodeficiency virus 1; assay: Selectivity ratio of EC50 for antiviral activity against APV-resistant HIV1 selected after 2 passages to EC50 for antiviral activity against wild-type HIV1 3B; assay type: functional
[43] = test system: Human immunodeficiency virus 1; assay: Selectivity ratio of EC50 for antiviral activity against EFV-resistant HIV1 selected after 7 passages to EC50 for antiviral activity against wild-type HIV1 3B; assay type: functional
[44] = test system: Human immunodeficiency virus 1; assay: Selectivity ratio of EC50 for antiviral activity against GS-9160-resistant HIV1 selected after 6 passages to EC50 for antiviral activity against wild-type HIV1 3B; assay type: functional
[45] = test system: Human immunodeficiency virus 1; assay: Selectivity ratio of EC50 for antiviral activity against GS-9160-resistant HIV1 selected after 5 passages to EC50 for antiviral activity against wild-type HIV1 3B; assay type: functional
[46] = test system: Human immunodeficiency virus 1; assay: Selectivity ratio of EC50 for antiviral activity against GS-9160-resistant HIV1 selected after 9 passages to EC50 for antiviral activity against wild-type HIV1 3B; assay type: functional
[47] = test system: Human immunodeficiency virus 1; assay: Selectivity ratio of EC50 for antiviral activity against GS-9160-resistant HIV1 selected after 8 passages to EC50 for antiviral activity against wild-type HIV1 3B; assay type: functional

SMILES | EC50 [1] | CC50 [2] | EC50 [8] | EC50 [13] | Ratio EC50 [16] | Ratio EC50 [17] | Ratio EC50 [18] | Ratio EC50 [19] | Ratio EC50 [20] | Ratio EC50 [21] | Ratio EC50 [22] | Ratio EC50 [23] | Ratio EC50 [24] | Ratio EC50 [25] | Ratio EC50 [26] | Ratio EC50 [27] | Ratio EC50 [28] | Ratio EC50 [29] | Ratio EC50 [30] | Ratio EC50 [31] | also measured
O=C1Nc2ccc(Cl)cc2[C@@](C#CC2CC2)(C(F)(F)F)O1 [EFAVIRENZ] | 6.8 nM | 15500 nM | – | – | – | – | – | – | – | – | – | – | – | – | – | – | – | – | – | – | –
COc1cc2c(cc1Cc1cccc(Cl)c1F)c(=O)c(C(=O)O)cn2[C@@H](CO)C(C)C | 0.6 nM | 5300 nM | 0.3 nM | > 1000 nM | – | – | – | – | – | – | – | – | – | – | – | – | – | – | – | – | CC50 [3]: 4000 nM; EC50 [4]: 16 nM; EC50 [5]: 24 nM; EC50 [6]: 121 nM; EC50 [7]: 0.2 nM; CC50 [9]: 40000 nM; EC50 [10]: 207 nM; EC50 [11]: 0.17 nM; EC50 [12]: 83 nM; CC50 [14]: 8000 nM; fold change (FC) [15]: 2.3
Nc1nc(=O)n([C@@H]2CS[C@H](CO)O2)cc1F [EMTRICITABINE] | 323 nM | – | – | – | 0.8 | 2 | >55 | 23 | 1 | 2 | 1 | 3 | 0.4 | 1 | 2 | 1 | 1 | 2 | 2 | 4 | Ratio EC50 [32]: 1; Ratio EC50 [33]: 1; Ratio EC50 [34]: 1; Ratio EC50 [35]: 2; Ratio EC50 [36]: 3; Ratio EC50 [37]: 26
Cc1cccc(C)c1OCC(=O)N[C@@H](Cc1ccccc1)[C@@H](O)C[C@H](Cc1ccccc1)NC(=O)[C@H](C(C)C)N1CCCNC1=O [LOPINAVIR] | 4.8 nM | – | – | – | 1 | 1 | 3 | 5 | 1 | 1 | 29 | 1 | 1 | 1 | 2 | 9 | 1 | 1 | 2 | 1 | Ratio EC50 [32]: 4; Ratio EC50 [33]: 1; Ratio EC50 [34]: 1; Ratio EC50 [35]: 1; Ratio EC50 [36]: 2; Ratio EC50 [37]: 3
CC(C)CN(C[C@@H](O)[C@H](Cc1ccccc1)NC(=O)O[C@H]1CCOC1)S(=O)(=O)c1ccc(N)cc1 | – | 96000 nM | > 1000 nM | > 1000 nM | – | – | – | – | – | – | – | – | – | – | – | – | – | – | – | – | Ratio EC50 [38]: 1.2; Ratio EC50 [39]: 1.6; Ratio EC50 [40]: 8.7; Ratio EC50 [41]: 0.9; Ratio EC50 [42]: 3.4; Ratio EC50 [43]: 1.6; Ratio EC50 [44]: 1.5; Ratio EC50 [45]: 1; Ratio EC50 [46]: 1.5; Ratio EC50 [47]: 4
